Here are results for 73 compounds from PMC12420824, “Discovery of a selective alpha-kinase 1 inhibitor for the rare genetic disease ROSAH syndrome” (Nature Communications, 2025).

The first experiment deals with ALPK1 (Homo sapiens, UniProt Q96QP1). The experiment can be described thus: TR-FRET (HTRF) kinase assay. As to conditions: 6.25 µM ATP, 20 nM ADP-D-heptose. Background: In TR-FRET formats the signal depends on donor and acceptor labels being close together.
Chain of ALPK1 (Q96QP1 whole entry): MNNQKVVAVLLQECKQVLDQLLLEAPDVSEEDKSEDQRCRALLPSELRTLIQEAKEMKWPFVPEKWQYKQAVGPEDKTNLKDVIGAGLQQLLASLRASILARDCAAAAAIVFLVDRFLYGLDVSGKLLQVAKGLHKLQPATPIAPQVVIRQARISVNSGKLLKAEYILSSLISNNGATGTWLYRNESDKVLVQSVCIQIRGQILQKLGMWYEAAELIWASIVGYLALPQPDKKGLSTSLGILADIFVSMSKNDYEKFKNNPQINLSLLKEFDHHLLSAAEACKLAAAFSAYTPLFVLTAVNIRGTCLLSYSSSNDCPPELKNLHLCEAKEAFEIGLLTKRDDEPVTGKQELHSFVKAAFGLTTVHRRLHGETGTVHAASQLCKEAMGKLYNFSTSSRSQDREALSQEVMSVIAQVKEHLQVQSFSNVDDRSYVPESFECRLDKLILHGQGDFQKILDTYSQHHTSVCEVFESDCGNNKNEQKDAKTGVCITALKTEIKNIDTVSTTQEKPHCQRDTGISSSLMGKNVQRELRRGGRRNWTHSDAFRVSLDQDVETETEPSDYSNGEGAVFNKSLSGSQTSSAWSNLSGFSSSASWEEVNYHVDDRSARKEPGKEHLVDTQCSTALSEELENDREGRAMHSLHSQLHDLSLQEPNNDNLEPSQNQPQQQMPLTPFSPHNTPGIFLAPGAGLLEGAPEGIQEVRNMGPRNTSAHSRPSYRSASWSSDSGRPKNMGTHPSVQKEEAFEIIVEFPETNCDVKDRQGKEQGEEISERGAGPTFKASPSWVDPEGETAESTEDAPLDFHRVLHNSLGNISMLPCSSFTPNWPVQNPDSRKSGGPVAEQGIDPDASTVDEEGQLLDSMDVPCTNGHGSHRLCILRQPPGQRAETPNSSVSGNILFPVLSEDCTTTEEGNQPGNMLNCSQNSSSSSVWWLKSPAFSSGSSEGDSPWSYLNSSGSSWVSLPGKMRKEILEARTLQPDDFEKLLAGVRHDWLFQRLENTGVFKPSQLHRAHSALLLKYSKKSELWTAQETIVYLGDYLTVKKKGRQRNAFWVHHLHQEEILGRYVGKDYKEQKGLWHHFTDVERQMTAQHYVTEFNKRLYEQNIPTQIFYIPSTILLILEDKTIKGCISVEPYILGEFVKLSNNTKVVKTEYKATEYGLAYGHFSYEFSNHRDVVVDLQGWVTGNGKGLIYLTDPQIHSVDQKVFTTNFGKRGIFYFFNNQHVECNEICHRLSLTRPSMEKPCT
Protocol: The 10 µL kinase reactions were allowed to proceed for 1.5 h at 27 °C. Kinase reactions were terminated by adding 10 µL of the HTRF KinEASE detection kit buffer (Cisbio, Bedford, MA, USA; 62SDBRDF) containing monoclonal anti-HA-Eu cryptate (Cisbio; 610HAKLB) and monoclonal Anti HA-d2 to each well. TIFA phosphorylation levels were monitored through the detection of oligomerization signals generated upon TIFAsome assembly. Both donor and acceptor antibodies recognize TIFA and will generate a TR-FRET signal when bound to the same TIFA oligomer formed upon TIFA phosphorylation. […] The TR-FRET signals were calculated as the ratio of the acceptor and donor emission signals with the formula below:
ALPK1 kinase activity was calculated as follows: % Activity = 100% × (TR-FRET signal of test compound - mean TR-FRET signal of no ATP 1% DMSO control) / (mean TR-FRET signal of 1% DMSO control – mean TR-FRET signal of no ATP 1% DMSO control).
In multi-dose assays, compound activity was calculated via logarithmic interpolation. Concentration-response curves were fitted with a four-parameter logistic nonlinear regression model and the IC50 values for these compounds were calculated in GraphPad Prism 6.
For the compound `COc1ccccc1CNC(=O)Nc1nc(C(C)(C)c2cccc(Br)c2)cs1` [Compound 6], the “HTRF Assay (IC50)” value is given as “No activity”.
Turning to `COc1ccccc1CNC(=O)Nc1nc(C2(c3ccccc3)CC2)cs1` [Compound 7], the “HTRF Assay (IC50)” value was “No activity”.
On the same count and under the same terms, to `COc1ccccc1CNC(=O)Nc1nc(C2(c3ccccc3)CCC2)cs1` [Compound 8] belongs “No activity”.

The experiment is the same for the next values; noted with them: read-out: HTRF Assay (IC50); 6.25 µM ATP, 20 nM ADP-D-heptose.
Broadly, the IC50 is the concentration at which inhibition is half-maximal. `COCC(C)(c1ccc(Cl)cc1)c1csc(NC(=O)NCCO)n1` (stereo not shown) [Compound 33]: the IC50 worked out at 558 nM.
Regarding `C#CC(C)(c1ccc(Cl)cc1)c1csc(NC(=O)c2c(F)cc(N3CCNCC3CO)cc2F)n1` (stereo not shown) [Compound 56], the IC50 was found to be 20 nM.
On to `C#CC(C)(c1ccc(Cl)cc1)c1csc(NC(N)=O)n1` (stereo not shown) [Compound 34], for which the IC50 was 48 nM.
As to `CC(c1ccc(Cl)cc1)(c1csc(NC(=O)c2c(F)cc(N3CCNCC3)cc2F)n1)C1CC1` (stereo not shown) [Compound 71], the IC50 was 25 nM.
As to `C#CC(C)(c1ccc(C)cc1)c1csc(NC(=O)c2c(F)cc(N3CCNCC3)cc2F)n1` (stereo not shown) [Compound 68], the IC50 came to 13 nM.
For the compound `COc1cccc2sc(NC(=O)c3c(F)cc(N4CCN(CCO)CC4)cc3F)nc12` [Compound 42], the IC50 was 5310 nM.
On the same count and under the same terms, under `CC(C)(c1ccc(Br)cc1)c1csc(NC(=O)NCc2ccc(N3CCNCC3)c(Cl)c2)n1` [Compound 24] stands 233 nM; under `COc1cccc2sc(NC(=O)c3c(F)cc(N4CCC(O)C4)cc3F)nc12` (stereo not shown) [Compound 39], 3190 nM; under `C#CC(C)(c1csc(NC(=O)c2c(F)cc(N3CCNCC3)cc2F)n1)c1ccc(Cl)cc1F` (stereo not shown) [Compound 65], 77 nM.
Still for that read-out and setting: under `CC(C)(c1ccc(F)cc1)c1csc(NC(=O)NCc2ccc(N3CCNCC3)cc2)n1` [Compound 14] stands 915 nM; under `COc1ccccc1CNC(=O)Nc1nc(C(C)(C)c2ccc(Br)cc2)cs1` [Compound 5], 1100 nM.
As for `CC(C)(c1ccccc1)c1csc(NC(=O)NCc2ccccc2)n1` [Compound 2], the IC50 was 2500 nM.
Turning to `CC(C)(c1ccc(OC(F)(F)F)cc1)c1csc(NC(=O)NCc2ccc(N3CCNCC3)cc2)n1` [Compound 10], the IC50 stood at 1130 nM.
`C#CC(C)(c1ccc(F)cc1)c1csc(NC(=O)c2c(F)cc(N3CCNCC3)cc2F)n1` (stereo not shown) [Compound 64]: the IC50 amounted to 14 nM.
With `C#CC(CC)(c1ccc(Br)cc1)c1csc(NC(=O)NCCO)n1` (stereo not shown) [Compound 32], the IC50 is 886 nM.
As for `COCC(C)(c1ccccc1)c1csc(NC(=O)c2c(F)cc(N3CCNCC3)cc2F)n1` (stereo not shown) [Compound 62], the IC50 was 182 nM.
Same read-out and setting: to `C#CC(C)(c1ccc(OC(F)F)cc1)c1csc(NC(=O)c2c(F)cc(N3CCNCC3)cc2F)n1` (stereo not shown) [Compound 73] belongs 73 nM; to `C#CC(C)(c1ccc(Cl)c(F)c1)c1csc(NC(=O)c2c(F)cc(N3CCNCC3)cc2F)n1` (stereo not shown) [Compound 67], 17 nM; to `C#CC(C)(c1ccc(Cl)cc1)c1csc(NC(=O)c2c(F)cc(N3CCNC(CO)C3)cc2F)n1` (stereo not shown) [Compound 55], 317 nM.
Still for that read-out and setting: under `CC(C)(c1ccccc1)c1csc(NC(=O)NCc2ccccc2)n1` [Compound 3] stands 2100 nM.
For `C#CC(C)(c1ccc(Br)cc1)c1csc(NC(=O)NCCO)n1` (stereo not shown) [Compound 29], the IC50 turned out to be 71 nM.
In the case of `CC(C)(c1ccc(I)cc1)c1csc(NC(=O)NCc2ccc(N3CCNCC3)cc2)n1` [Compound 15], the IC50 turned out to be 284 nM.
Regarding `C#CC(C)(c1ccc(Cl)cc1)c1csc(NC(=O)c2c(F)cc(N3CCNCC3CC)cc2F)n1` (stereo not shown) [Compound 58], the IC50 amounted to 70 nM.
For the compound `COc1cc(CNC(=O)Nc2nc(C(C)(C)c3ccc(Br)cc3)cs2)ccc1N1CCNCC1` [Compound 26], the IC50 was 161 nM.
Consider `C#CC(C)(c1ccc(Cl)cc1)c1csc(NC(=O)c2c(F)cc(NCCO)cc2F)n1` (stereo not shown) [Compound 52], for which the IC50 was determined as 405 nM.
On to `C#CC(C)(c1ccc(Cl)cc1)c1csc(NC(=O)c2ccc(N3CCNCC3)cc2F)n1` (stereo not shown) [Compound 48], for which the half-inhibitory concentration (IC50) stood at 151 nM.
Still for that read-out and setting: under `COc1ccccc1CNC(=O)Nc1nc(C(C)(C)c2ccccc2)cs1` [Compound 4] stands 2200 nM.
With `O=C(NCc1ccc(N2CCNCC2)cc1)Nc1nc(C(CO)c2ccc(Br)cc2)cs1` (stereo not shown) [Compound 16], the concentration for half-maximal inhibition (IC50) was determined as 5620 nM.
Take `O=C(Nc1nc(C2(c3ccc(Br)cc3)CCCC2)cs1)c1c(F)cc(N2CCNCC2)cc1F` [Compound 63]: the IC50 turned out to be 437 nM.
As for `CC(c1ccc(Cl)cc1)c1csc(NC(=O)c2c(F)cc(N3CCNCC3)cc2F)n1` (stereo not shown) [Compound 59], the concentration for half-maximal inhibition (IC50) came to 270 nM.
In the case of `C#CC(C)(c1ccc(Cl)cc1)c1csc(NC(=O)c2c(F)cc(N3CCN(C)CC3)cc2F)n1` (stereo not shown) [Compound 51], the IC50 came out at 425 nM.
As to `COc1ccccc1CNC(=O)Nc1nc(C(C)c2ccccc2)cs1` (stereo not shown) [Compound 9], the half-inhibitory concentration (IC50) stood at 3750 nM.
`C#CC(C)(c1ccc(Cl)cc1)c1csc(NC(=O)c2ccc(N3CCNCC3)cc2)n1` (stereo not shown) [Compound 45]: the half-maximal inhibitory concentration (IC50) turned out to be 38 nM.
Regarding `CCC(C)(c1ccc(Br)cc1)c1csc(NC(=O)NCc2ccc(N3CCNCC3)cc2)n1` (stereo not shown) [Compound 19], the IC50 is 429 nM.
As for `COc1cccc2sc(NC(=O)c3c(F)cc(N4CCC(N)C4)cc3F)nc12` (stereo not shown) [Compound 38], the concentration for half-maximal inhibition (IC50) amounted to 125 nM.
For the compound `O=C(Nc1nc(Cc2ccccn2)cs1)c1c(F)cc(N2CCNCC2)cc1F` [Compound 60], the IC50 came out at 1270 nM.
Still for that read-out and setting: to `O=C(NCc1ccccc1)Nc1nc(C2(c3ccccc3)CCCC2)cs1` [Compound 1] belongs 5000 nM.
For the compound `CC(C)(c1ccc(Cl)cc1)c1csc(NC(=O)NCc2ccc(N3CCNCC3)cc2)n1` [Compound 11], the IC50 worked out at 44 nM.
With `CC(C)(c1ccc(F)cc1)c1csc(NC(=O)c2c(F)cc(N3CCNCC3)cc2F)n1` [Compound 61], the IC50 was found to be 23 nM.
For `COc1cccc2sc(NC(=O)c3c(F)cc(N4CCN(Cc5ccccc5)C(=O)C4)cc3F)nc12` [Compound 36], the IC50 came to 321 nM.
Same read-out and setting: to `COc1cccc2sc(NC(=O)c3c(F)cccc3F)nc12` [Compound 35] belongs 1300 nM; to `COCC(C)(c1ccc(Cl)cc1)c1csc(NC(=O)c2c(F)cc(N3CCNCC3)cc2F)n1` (stereo not shown) [Compound 74], 42 nM; to `COc1cccc2sc(NC(=O)c3c(F)cc(NCCN(C)C)cc3F)nc12` [Compound 37], 507 nM.
With `CC(c1ccc(Br)cc1)c1csc(NC(=O)NCc2ccc(N3CCNCC3)cc2)n1` (stereo not shown) [Compound 17], the 50% inhibitory concentration (IC50) amounted to 391 nM.
Regarding `C#CC(CC)(c1ccc(Cl)cc1)c1csc(NC(=O)c2c(F)cc(N3CCNCC3)cc2F)n1` (stereo not shown) [Compound 66], the IC50 came to 83 nM.
Same read-out and setting: under `COCCNC(=O)Nc1nc(C(C)(C)c2ccc(Br)cc2)cs1` [Compound 28] stands 1130 nM.
Still for that read-out and setting: under `COc1cccc2sc(NC(=O)c3c(F)cc(OCCO)cc3F)nc12` [Compound 40] stands 560 nM; under `COc1ccc(C(C)(C)c2csc(NC(=O)NCc3ccc(N4CCNCC4)cc3)n2)cc1` [Compound 20], 122 nM.
Consider `CC(C)(c1ccc(O)cc1)c1csc(NC(=O)NCc2ccc(N3CCNCC3)cc2)n1` [Compound 22], for which the half-inhibitory concentration (IC50) turned out to be 732 nM.
Consider `C#CC(C)(c1ccc(Cl)cc1)c1csc(NC(=O)c2c(Cl)cc(N3CCNCC3)cc2Cl)n1` (stereo not shown) [Compound 53], for which the IC50 came out at 312 nM.
Consider `C#CC(C)(c1ccc(OC)cc1)c1csc(NC(N)=O)n1` (stereo not shown) [Compound 31], for which the IC50 was found to be 94 nM.
With `COc1cccc2sc(NC(=O)c3c(F)cc(N4CCNCC4)cc3F)nc12` [Compound 43], the IC50 turned out to be 209 nM.
Consider `C#CC(C)(c1ccc(Br)cc1)c1csc(NC(N)=O)n1` (stereo not shown) [Compound 30], for which the IC50 amounted to 130 nM.
Regarding `CC(C)(c1ccc(Br)cc1)c1csc(NC(=O)NCc2ccc(N3CCNCC3)cc2)n1` [Compound 18], the IC50 stood at 130 nM.
As for `COc1cccc2sc(NC(=O)c3c(F)cc(N4CCNC(C)C4)cc3F)nc12` (stereo not shown) [Compound 44], the IC50 was 349 nM.
For `C#CC(C)(c1ccc(Cl)cc1)c1csc(NC(=O)c2c(F)ccc(OC)c2F)n1` (stereo not shown) [Compound 47], the IC50 was 1550 nM.
In the case of `CC(C)(c1ccc(Br)cc1)c1csc(NC(=O)NCc2ccc(N3CCNCC3)c(F)c2)n1` [Compound 23], the IC50 stood at 138 nM.
As for `C#CC(C)(c1ccc(Cl)cc1)c1csc(NC(=O)c2ccc(N3CCNCC3)nc2)n1` (stereo not shown) [Compound 46], the half-inhibitory concentration (IC50) turned out to be 167 nM.
Same read-out and setting: under `COc1ccc(C(C)(C)c2csc(NC(=O)NCc3ccc(N4CCNCC4)c(F)c3)n2)cc1` [Compound 21] stands 84 nM; under `C#CC(C)(c1ccc(Cl)cc1)c1csc(NC(=O)c2c(F)cc(N3CCC(N)C3)cc2F)n1` (stereo not shown) [Compound 54], 31 nM; under `CC(c1ccccc1)(c1ccc(Cl)cc1)c1csc(NC(=O)c2c(F)cc(N3CCNCC3)cc2F)n1` (stereo not shown) [Compound 70], 577 nM.
Take `C#CC(C)(c1ccc(OC)cc1)c1csc(NC(=O)c2c(F)cc(N3CCNCC3)cc2F)n1` (stereo not shown) [Compound 72]: the IC50 amounted to 18 nM.
For the compound `CCOCC(C)(c1ccccc1)c1csc(NC(=O)c2c(F)cc(N3CCNCC3)cc2F)n1` (stereo not shown) [Compound 75], the IC50 stood at 642 nM.
For the compound `CC#CC(C)(c1ccc(Cl)cc1)c1csc(NC(=O)c2c(F)cc(N3CCNCC3)cc2F)n1` (stereo not shown) [Compound 69], the IC50 was found to be 45 nM.
Take `CC(C)(c1ccc(C#N)cc1)c1csc(NC(=O)NCc2ccc(N3CCNCC3)cc2)n1` [Compound 13]: the IC50 amounted to 236 nM.
For `CC(C)(c1ccc(C2CC2)cc1)c1csc(NC(=O)NCc2ccc(N3CCNCC3)cc2)n1` [Compound 12], the IC50 amounted to 155 nM.
In the case of `COc1cccc2sc(NC(=O)c3c(F)cc(N4CCC(CO)CC4)cc3F)nc12` [Compound 41], the IC50 amounted to 2280 nM.
As to `Cc1cc(CNC(=O)Nc2nc(C(C)(C)c3ccc(Br)cc3)cs2)ccc1N1CCNCC1` [Compound 25], the IC50 was determined as 462 nM.

Still in this experiment, the particulars now being: read-out: IC50 in TR-FRET assay; 6.25 µM ATP, 20 nM ADP-D-heptose.
Regarding `COc1ccc(OC)c2sc(NC(=O)c3c(F)cccc3F)nc12` [Hit 2], the IC50 was found to be 11000 nM.
On to `Nc1nc(C2(c3ccccc3)CCCC2)cs1` [Hit 1], for which the IC50 is 4000 nM.
